Values after ≈ are worked out from the molar mass of the structure shown. Numbered stars: 1 amine (or outer) side, 2 acyl side, 3 side chain; on linkers, the order of the positions; unused ones are H or OH. Square brackets hold non-standard residues; d marks the D form. Peptide text beside a SMILES is read from it. Gly(Dodecyl) = CCCCCCCCCCCC[C@H](N)C(=O)O; X1 = CCCCCCCCCCCCC[C@H](N[*:1])C(=O)[*:2]
Key:
[1] = test system: Aspergillus fumigatus IAM2612; settings: IAM2612, pH 6.8
[2] = test system: Trichophyton rubrum IFO9185; settings: pH 6.8
[3] = test system: Candida tropicalis IFO3256; settings: IFO3256, pH 6.8
[4] = test system: Candida albicans IFM4009, Aspergillus fumigatus Tsukuba No. 12, Cryptococcus neoformans 145A; test: Effectiveness in systemically fungi-infected mice; type: in vivo; settings: mice intravenously inoculated with clinically isolated strains
Text: As one example of the test of testing the effectiveness of the active substances, HUT57A or HUT57B may be administered to systemically fungi-infected mice, to which various clinically isolated strains (Candida albicans IFM4009, Aspergillus fumigatus Tsukuba No. 12, Cryptococcus neoformans 145A) were intravenously inoculated, whereby the effectiveness of administered the substance may be examined.

[5] = test system: Trichosporon cutaneum IFO1500; settings: pH 6.8
Candida albicans DUC1001 = test: Antifungal activity in vitro by counting the number of the living cells; type: cell-based; settings: just after addition at 25, 40 and 80 µg/ml
ddy-N mice = test: Acute toxicity test, single intravenous injection; type: in vivo
Procedure: In the next test, mice of the same kind as mentioned above were used. Each of HUT57A and HUT57B was dissolved in DMSO (dimethylsulfoxide)-castor oil-5 % Glc solution, and the resulting solution was injected to the caudal vein of each of the five male mice once or plural times. For the single injection, the solution was administered to the mice each in an amount of 200 mg per kg of the body weight; and for the plural injections, it was administered to them 14 times each in an amount of 30 mg/kg/day.

[6] = test system: Trichophyton mentagrophytes IFO6124; settings: pH 6.8
[7] = test system: Fusarium solani ATCC11712; settings: ATCC11712, pH 6.8
[8] = test system: Cryptococcus neoformans IFO1320; settings: IFO1320, pH 6.8
[9] = test system: Aspergillus flavas IAM2044; settings: pH 6.8
[10] = test system: Diaporothe citiri IFO9170; settings: pH 6.8
[11] = test system: Botrytis cinerea IFO31831; settings: pH 6.8
[12] = test system: Fusarium oxysporum HUT5015; settings: pH 6.8
[13] = test system: Mucor guilliermondii IFO9403; settings: pH 6.8

Row | SMILES | MIC [1] [mg/L] | MIC [2] [mg/L] | MIC [3] [mg/L] | effectiveness to systemic mycosis in mice [4] | MIC [5] [mg/L] | number of the living cells (Candida albicans DUC1001) | LD₅₀ by single intravenous injection (ddy-N mice) [mg/kg] | MIC [6] [mg/L] | MIC [7] [mg/L] | Hemolyzation Activity (Hemolyzation Activity) | MIC [8] [mg/L] | MIC [9] [mg/L] | MIC [10] [mg/L] | MIC [11] [mg/L] | MIC [12] [mg/L] | MIC [13] [mg/L]
1 | CCCCCCCCCCCC[C@@H]1NC(=O)[C@H](CCC(N)=O)NC(=O)[C@H](CC(N)=O)NC(=O)[C@H](Cc2ccc(O)cc2)NC(=O)[C@H](CC(N)=O)NC(=O)[C@@H]2CCCN2C(=O)[C@H](CO)NC(=O)[C@H](CC(N)=O)NC1=O [HUT57A, X-Asn-Ser-Pro-Asn-Tyr-Asn-Gln] (cyclo([Gly(Dodecyl)]NSPNYNQ)) | 1.3 (≈ 1.25 µM) | 6.2 (≈ 5.94 µM) | 11.4 (≈ 10.9 µM) | effective | 23.0 (≈ 22 µM) | noticeably decreased | ≥ 200 | 10.0 (≈ 9.59 µM) | 2.8 (≈ 2.68 µM) | - | 6.0 (≈ 5.75 µM) | 2.3 (≈ 2.2 µM) | 1.0 (≈ 0.959 µM) | 2.2 (≈ 2.11 µM) | 1.2 (≈ 1.15 µM) | 1.2 (≈ 1.15 µM)
2 | CCCCCCCCCCCCC[C@@H]1NC(=O)[C@H](CCC(N)=O)NC(=O)[C@H](CC(N)=O)NC(=O)[C@H](Cc2ccc(O)cc2)NC(=O)[C@H](CC(N)=O)NC(=O)[C@@H]2CCCN2C(=O)[C@H](CO)NC(=O)[C@H](CC(N)=O)NC1=O [HUT57B, X-Asn-Ser-Pro-Asn-Tyr-Asn-Gln] (cyclo([X1]NSPNYNQ)) | 1.3 (≈ 1.23 µM) | 5.4 (≈ 5.11 µM) | 11.2 (≈ 10.6 µM) | effective | 23.0 (≈ 21.8 µM) | noticeably decreased | ≥ 200 | 10.0 (≈ 9.46 µM) | 2.8 (≈ 2.65 µM) | - | 5.2 (≈ 4.92 µM) | 2.4 (≈ 2.27 µM) | 1.0 (≈ 0.946 µM) | 2.1 (≈ 1.99 µM) | 1.2 (≈ 1.14 µM) | 1.2 (≈ 1.14 µM)
